Assay results from patent US7109193B2, “Tricyclic diazepines tocolytic oxytocin receptor antagonists” (Wyeth, priority 2001, dated 2006).

Target: T1, human vasopressin V1a receptor subtype (Homo sapiens, UniProt P37288)
T1 construct: host or cells: CHO cells (pZeoSV vector for the Thibonnier line)
Experiment: Vasopressin binding in Chinese Hamster Ovary cell membranes expressing human vasopressin V1a subtype receptors
Settings: 100 nM, CHO cell membranes, [3H]Manning ligand, values without parentheses
Outline: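 Membranes from CHO cells expressing human V1a receptor were incubated with [3H]Manning ligand (added as 20 μL of 8 nM) in pH 7.4 Tris buffer with MgCl2, BSA and protease inhibitors, 60 min at room temperature. Bound radioactivity was counted after filtration; values are percent inhibition at a stated concentration or IC50.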

T1 sequence (P37288 whole entry): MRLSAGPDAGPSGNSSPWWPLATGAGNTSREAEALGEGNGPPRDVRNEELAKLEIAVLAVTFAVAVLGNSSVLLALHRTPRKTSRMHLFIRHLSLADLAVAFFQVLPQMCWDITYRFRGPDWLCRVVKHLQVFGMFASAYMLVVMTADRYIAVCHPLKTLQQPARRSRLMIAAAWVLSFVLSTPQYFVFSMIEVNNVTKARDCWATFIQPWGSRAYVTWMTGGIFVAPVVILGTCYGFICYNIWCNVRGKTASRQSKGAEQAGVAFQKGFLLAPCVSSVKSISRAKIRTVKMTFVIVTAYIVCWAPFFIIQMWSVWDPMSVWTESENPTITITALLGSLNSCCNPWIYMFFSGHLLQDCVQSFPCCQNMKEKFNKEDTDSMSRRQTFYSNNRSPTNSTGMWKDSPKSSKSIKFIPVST

Going from COc1cc(C(=O)N2Cc3ccc(C(=O)N4CC[C@@H](N(C)C)C4)n3Cc3ccccc32)ccc1-n1c(C)ccc1C [Example 322, [(3R)-3-(Dimethylamino)pyrrolidinyl]{10-[4-(2,5-dimethyl-1H-pyrrol-1-yl)-3-methoxybenzoyl]-10,11-dihydro-5H-pyrrolo[2,1-c][1,4]benzodiazepin-3-yl}methanone] to COc1cccc(-c2ccc(C(=O)N3Cc4ccc(C(=O)N5CC[C@@H](N(C)C)C5)n4Cc4ccccc43)cc2OC)c1 [Example 283, {10-[(2,3′-Dimethoxy[1,1′-biphenyl]-4-yl)carbonyl]-10,11-dihydro-5H-pyrrolo[2,1-c][1,4]benzodiazepin-3-yl}[(3R)-3-(dimethylamino)pyrrolidinyl]methanone], the “V1a % inhibition @ 100 nM” value rises from 12% to 40%.

Compared with O=C(c1ccc2n1Cc1ccccc1N(C(=O)c1ccc(-c3cccc4ccccc34)cc1Cl)C2)N1CCC(N2CCCCC2)CC1 [Example 121], COc1cc(C(=O)N2Cc3ccc(C(=O)N4CCC[C@H]4CN4CCCC4)n3Cc3ccccc32)ccc1-c1cccc2ccccc12 [Example 262, {10-[3-Methoxy-4-(1-naphthyl)benzoyl]-10,11-dihydro-5H-pyrrolo[2,1-c][1,4]benzodiazepin-3-yl}[(2S)-2-(1-pyrrolidinylmethyl)pyrrolidinyl]methanone] is higher in “V1a % inhibition @ 100 nM” value: 0% for the first, 8% for the second.

Going from COc1cc(C(=O)N2Cc3ccc(C(=O)N4CC[C@@H](N(C)C)C4)n3Cc3ccccc32)ccc1-c1cccc2ccccc12 [Example 276, [(3R)-3-(Dimethylamino)pyrrolidinyl]{10-[3-methoxy-4-(1-naphthyl)benzoyl]-10,11-dihydro-5H-pyrrolo[2,1-c][1,4]benzodiazepin-3-yl}methanone] to COc1ccccc1-c1ccc(C(=O)N2Cc3ccc(C(=O)N4CCC[C@H]4CN4CCCC4)n3Cc3ccccc32)cc1C [Example 259, {10-[(2′-Methoxy-2-methyl[1,1′-biphenyl]-4-yl)carbonyl]-10,11-dihydro-5H-pyrrolo[2,1-c][1,4]benzodiazepin-3-yl}[(2S)-2-(1-pyrrolidinylmethyl)pyrrolidinyl]methanone], the “V1a % inhibition @ 100 nM” value rises from 4% to 21%.

First: Cc1ccccc1-c1ccc(C(=O)N2Cc3ccc(C(=O)N4CCC[C@H]4CN4CCCC4)n3Cc3ccccc32)cc1C [Example 260, {10-[(2,2′-Dimethyl[1,1′-biphenyl]-4-yl)carbonyl]-10,11-dihydro-5H-pyrrolo[2,1-c][1,4]benzodiazepin-3-yl}[(2S)-2-(1-pyrrolidinylmethyl)pyrrolidinyl]methanone]
Second: Cc1ccccc1-c1ccc(C(=O)N2Cc3ccc(C(=O)N4CCC[C@H]4CN4CCCC4)n3Cc3ccccc32)cc1 [Example 264, {10-[(2′-Methyl[1,1′-biphenyl]-4-yl)carbonyl]-10,11-dihydro-5H-pyrrolo[2,1-c][1,4]benzodiazepin-3-yl}[(2S)-2-(1-pyrrolidinylmethyl)pyrrolidinyl]methanone]
The “V1a % inhibition @ 100 nM” value of the first is lower: 55% for the first, 67% for the second.

Going from COc1ccccc1-c1ccc(C(=O)N2Cc3ccc(C(=O)N4CCC[C@H]4CN4CCCC4)n3Cc3ccccc32)cc1 [Example 265, {10-[(2′-Methoxy[1,1′-biphenyl]-4-yl)carbonyl]-10,11-dihydro-5H-pyrrolo[2,1-c][1,4]benzodiazepin-3-yl}[(2S)-2-(1-pyrrolidinylmethyl)pyrrolidinyl]methanone] to COc1cc(C(=O)N2Cc3ccc(C(=O)N4CCC[C@H]4CN4CCCC4)n3Cc3ccccc32)ccc1-n1c(C)ccc1C [Example 321, {10-[4-(2,5-Dimethyl-1H-pyrrol-1-yl)-3-methoxybenzoyl]-10,11-dihydro-5H-pyrrolo[2,1-c][1,4]benzodiazepin-3-yl}[(2S)-2-(1-pyrrolidinylmethyl)pyrrolidinyl]methanone], the “V1a % inhibition @ 100 nM” value falls from 31% to 5%.

In the case of COc1cccc(-c2cc(OC)c(C(=O)N3Cc4ccc(C(=O)N5CCC[C@H]5CN5CCCC5)n4Cc4ccccc43)cc2Cl)c1 [Example 268, {10-[(6-Chloro-3,3′-dimethoxy[1,1′-biphenyl]-4-yl)carbonyl]-10,11-dihydro-5H-pyrrolo[2,1-c][1,4]benzodiazepin-3-yl}[(2S)-2-(1-pyrrolidinylmethyl)pyrrolidinyl]methanone], the “V1a % inhibition @ 100 nM” value is reported as 6%.

First: Cc1ccccc1-c1ccc(C(=O)N2Cc3ccc(C(=O)N4CCC(N5CCCCC5)CC4)n3Cc3ccccc32)cc1C [Example 113, {10-[(2-Methyl-2′-methyl[1,1′-biphenyl]-4-yl)carbonyl]-10,11-dihydro-5H-pyrrolo[2,1-c][1,4]benzodiazepin-3-yl}[4-(1-piperidinyl)-1-piperidinyl]methanone]
Second: COc1ccccc1-c1ccc(C(=O)N2Cc3ccc(C(=O)N4CCC(N5CCCC5)CC4)n3Cc3ccccc32)cc1C [Example 137, {10-[(2′-Methoxy-2-methyl[1,1′-biphenyl]-4-yl)carbonyl]-10,11-dihydro-5H-pyrrolo[2,1-c][1,4]benzodiazepin-3-yl}[4-(1-pyrrolidinyl)-1-piperidinyl]methanone]
The inhibition at 0.1 µM of the first is higher: 45% for the first, 4% for the second.

Going from COc1ccccc1-c1ccc(C(=O)N2Cc3ccc(C(=O)NCCN4CCCCC4)n3Cc3ccccc32)cc1 [Example 152, 10-[(2′-Methoxy[1,1′-biphenyl]-4-yl)carbonyl]-N-[2-(1-piperidinyl)ethyl]-10,11-dihydro-5H-pyrrolo[2,1-c][1,4]benzodiazepine-3-carboxamide] to COc1cccc(-c2ccc(C(=O)N3Cc4ccc(C(=O)NCCN5CCCCC5)n4Cc4ccccc43)cc2C)c1 [Example 151, 10-[(3′-Methoxy-2-methyl[1,1′-biphenyl]-4-yl)carbonyl]-N-[2-(1-piperidinyl)ethyl]-10,11-dihydro-5H-pyrrolo[2,1-c][1,4]benzodiazepine-3-carboxamide], the inhibition at 0.1 µM falls from 23% to 17%.

First: Cc1cc(C(=O)N2Cc3ccc(C(=O)N(CCCN(C)C)CCCN(C)C)n3Cc3ccccc32)ccc1-c1ccccc1C(F)(F)F [Example 3, 10-[(2-Methyl-2′-trifluoromethyl-[1,1′-biphenyl]-4-yl)-carbonyl]-10,11-dihydro-5H-pyrrolo[2,1-c][1,4]benzodiazepine-3-carboxylic acid bis-(3-dimethylamino-propyl)-amide]
Second: Cc1cc(C(=O)N2Cc3ccc(C(=O)N4CCC(N5CCCC5)CC4)n3Cc3ccccc32)ccc1-c1ccccc1C(F)(F)F [Example 148, (10-{[2-Methyl-2′-(trifluoromethyl)[1,1′-biphenyl]-4-yl]carbonyl}-10,11-dihydro-5H-pyrrolo[2,1-c][1,4]benzodiazepin-3-yl)[4-(1-pyrrolidinyl)-1-piperidinyl]methanone]
The inhibition at 0.1 µM of the first is higher: -8% for the first, -9% for the second.

First: Cc1ccccc1-c1ccc(C(=O)N2Cc3ccc(C(=O)N4CCC(N5CCCCC5)CC4)n3Cc3ccccc32)cc1 [Example 115, {10-[(2′-Methyl[1,1′-biphenyl]-4-yl)carbonyl]-10,11-dihydro-5H-pyrrolo[2,1-c][1,4]benzodiazepin-3-yl}[4-(1-piperidinyl)-1-piperidinyl]methanone]
Second: COc1cc(C(=O)N2Cc3ccc(C(=O)N4CCC(N5CCCC5)CC4)n3Cc3ccccc32)ccc1-c1ccccc1C [Example 142, {10-[(2-Methoxy-2′-methyl[1,1′-biphenyl]-4-yl)carbonyl]-10,11-dihydro-5H-pyrrolo[2,1-c][1,4]benzodiazepin-3-yl}[4-(1-pyrrolidinyl)-1-piperidinyl]methanone]
The inhibition at 0.1 µM of the first is lower: 11% for the first, 46% for the second.

Going from COc1cc(C(=O)N2Cc3ccc(C(=O)N4CCC(N5CCCCC5)CC4)n3Cc3ccccc32)ccc1-c1cccc2ccccc12 [Example 118, {10-[3-Methoxy-4-(1-naphthyl)-benzoyl]-10,11-dihydro-5H-pyrrolo[2,1-c][1,4]benzodiazepin-3-yl}[4-(1-piperidinyl)-1-piperidinyl]methanone] to COc1cc(C(=O)N2Cc3ccc(C(=O)NCCCn4ccnc4)n3Cc3ccccc32)ccc1-c1cccc2ccccc12 [Example 131, N-[3-(1H-Imidazol-1-yl)propyl]-10-[3-methoxy-4-(1-naphthyl)benzoyl]-10,11-dihydro-5H-pyrrolo[2,1-c][1,4]benzodiazepine-3-carboxamide], the inhibition at 0.1 µM falls from 14% to 8%.

Compared with Cc1ccccc1-c1ccc(C(=O)N2Cc3ccc(C(=O)NCCCn4ccnc4)n3Cc3ccccc32)cc1C [Example 124, 10-[(2,2′-Dimethyl[1,1′-biphenyl]-4-yl)carbonyl]-N-[3-(1H-imidazol-1-yl)propyl]-10,11-dihydro-5H-pyrrolo[2,1-c][1,4]benzodiazepine-3-carboxamide], COc1cc(C(=O)N2Cc3ccc(C(=O)NCCCn4ccnc4)n3Cc3ccccc32)ccc1-c1ccccc1C [Example 128, N-[3-(1H-Imidazol-1-yl)propyl]-10-[(2-methoxy-2′-methyl[1,1′-biphenyl]-4-yl)carbonyl]-10,11-dihydro-5H-pyrrolo[2,1-c][1,4]benzodiazepine-3-carboxamide] is higher in inhibition at 0.1 µM: 16% for the first, 18% for the second.

With Cc1ccccc1-c1ccc(C(=O)N2Cc3ccc(C(=O)NCCCn4ccnc4)n3Cc3ccccc32)cc1 [Example 127, N-[3-(1H-Imidazol-1-yl)propyl]-10-[(2′-methyl[1,1′-biphenyl]-4-yl)carbonyl]-10,11-dihydro-5H-pyrrolo[2,1-c][1,4]benzodiazepine-3-carboxamide] the inhibition at 0.1 µM was 16%.
